The text below walks through data of patent US11415576B2, “Method for measurement of vitamin D” (Roche Diagnostics Operations, Inc., priority 2014, dated 2022).

This assay deals with T1, ruthenylated Vitamin D-binding protein conjugate (Homo sapiens, UniProt P02774).
T1 sequence (P02774 17-474): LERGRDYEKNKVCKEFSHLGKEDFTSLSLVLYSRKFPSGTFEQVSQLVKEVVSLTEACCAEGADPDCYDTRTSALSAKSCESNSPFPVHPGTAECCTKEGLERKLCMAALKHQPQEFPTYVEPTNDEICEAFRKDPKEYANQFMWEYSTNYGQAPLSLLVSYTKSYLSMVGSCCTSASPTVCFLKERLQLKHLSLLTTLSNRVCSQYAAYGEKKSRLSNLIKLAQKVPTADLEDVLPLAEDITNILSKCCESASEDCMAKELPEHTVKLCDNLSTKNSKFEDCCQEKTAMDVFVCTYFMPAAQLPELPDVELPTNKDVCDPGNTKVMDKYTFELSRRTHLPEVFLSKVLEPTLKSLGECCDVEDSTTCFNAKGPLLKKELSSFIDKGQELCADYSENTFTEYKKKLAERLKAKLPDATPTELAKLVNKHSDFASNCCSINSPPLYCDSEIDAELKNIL
The assay can be described thus: Elecsys Vitamin D total immunoassay, dilution series in Diluent Universal, without or with blocking reagent.

Turning to `C=C1CC[C@H](O)C/C1=C/C=C1\CCC[C@@]2(C)C1CC[C@@H]2[C@H](C)CCC(O)C(C)(C)O` (stereo partly shown) [24,25(OH)2VitD3, 24,25-dihydroxyvitamin D3], the B/B0 is, setting by setting: (24 nmoL/L, Reference, without blocking reagent) 67%; (24 nmoL/L, with mAb<24,25(OH)2VitD3> 0.075 mg/mL in R1) 95%; (48 nmoL/L, Reference, without blocking reagent) 53%; (48 nmoL/L, with mAb<24,25(OH)2VitD3> 0.075 mg/mL in R1) 92%; (72 nmoL/L, Reference, without blocking reagent) 37%; (72 nmoL/L, with mAb<24,25(OH)2VitD3> 0.075 mg/mL in R1) 91%. In addition, the B/B0 came to 32% (96 nmoL/L, Reference, without blocking reagent); 91% (96 nmoL/L, with mAb<24,25(OH)2VitD3> 0.075 mg/mL in R1); 26% (120 nmoL/L, Reference, without blocking reagent); 88% (120 nmoL/L, with mAb<24,25(OH)2VitD3> 0.075 mg/mL in R1); 25% (144 nmoL/L, Reference, without blocking reagent); 88% (144 nmoL/L, with mAb<24,25(OH)2VitD3> 0.075 mg/mL in R1). Further, the B/B0 by setting is: (192 nmoL/L, Reference, without blocking reagent) 21%; (192 nmoL/L, with mAb<24,25(OH)2VitD3> 0.075 mg/mL in R1) 86%; (240 nmoL/L, Reference, without blocking reagent) 18%; (240 nmoL/L, with mAb<24,25(OH)2VitD3> 0.075 mg/mL in R1) 82%; (288 nmoL/L, Reference, without blocking reagent) 15%; (288 nmoL/L, with mAb<24,25(OH)2VitD3> 0.075 mg/mL in R1) 76%. For the same molecule, the B/B0 by setting is: (360 nmoL/L, Reference, without blocking reagent) 13%; (360 nmoL/L, with mAb<24,25(OH)2VitD3> 0.075 mg/mL in R1) 74%; (480 nmoL/L, Reference, without blocking reagent) 11%; (480 nmoL/L, with mAb<24,25(OH)2VitD3> 0.075 mg/mL in R1) 66%. In addition, the “cross-reactivity of the reference immunoassay” value (without blocking reagent) is recorded as “showed cross-reactivity”.
Take `C=C1CC[C@H](O)C/C1=C/C=C1\CCC[C@]2(C)[C@@H]([C@H](C)CCCC(C)(C)O)CC[C@@H]12` [25(OH)VitD3, 25-hydroxyvitamin D3]: the B/B0 was determined as 81% (25 nmoL/L, Reference, without blocking reagent); 77% (25 nmoL/L, with mAb<24,25(OH)2VitD3> 0.075 mg/mL in R1); 59% (50 nmoL/L, Reference, without blocking reagent); 63% (50 nmoL/L, with mAb<24,25(OH)2VitD3> 0.075 mg/mL in R1); 44% (75 nmoL/L, Reference, without blocking reagent); 49% (75 nmoL/L, with mAb<24,25(OH)2VitD3> 0.075 mg/mL in R1). The B/B0 is on record as 37% (100 nmoL/L, Reference, without blocking reagent); 42% (100 nmoL/L, with mAb<24,25(OH)2VitD3> 0.075 mg/mL in R1); 30% (125 nmoL/L, Reference, without blocking reagent); 33% (125 nmoL/L, with mAb<24,25(OH)2VitD3> 0.075 mg/mL in R1); 27% (150 nmoL/L, Reference, without blocking reagent); 30% (150 nmoL/L, with mAb<24,25(OH)2VitD3> 0.075 mg/mL in R1). The B/B0 is, setting by setting: (200 nmoL/L, Reference, without blocking reagent) 22%; (200 nmoL/L, with mAb<24,25(OH)2VitD3> 0.075 mg/mL in R1) 23%; (250 nmoL/L, Reference, without blocking reagent) 18%; (250 nmoL/L, with mAb<24,25(OH)2VitD3> 0.075 mg/mL in R1) 18%; (300 nmoL/L, Reference, without blocking reagent) 16%; (300 nmoL/L, with mAb<24,25(OH)2VitD3> 0.075 mg/mL in R1) 15%. The B/B0 by setting is: (374 nmoL/L, Reference, without blocking reagent) 14%; (374 nmoL/L, with mAb<24,25(OH)2VitD3> 0.075 mg/mL in R1) 13%; (499 nmoL/L, Reference, without blocking reagent) 11%; (499 nmoL/L, with mAb<24,25(OH)2VitD3> 0.075 mg/mL in R1) 10%. Also, for the setting “without blocking reagent”, the “cross-reactivity of the reference immunoassay” value is “showed cross-reactivity”.
